# The NIST ThermoML archive (doi:10.1016/j.jct.2011.11.026)
# Numbers after ± are expanded uncertainties.
# How the values were obtained:
# [1] = molar heat capacity at constant pressure; conditions: 298.15 K; 101.33 kPa; Crystal; Small sample (50 mg) DSC
# [2] = Crystal; DTA
# [3] = Molar enthalpy of transition or fusion; conditions: Crystal; DSC
SMILES,molar heat capacity at constant pressure [1] [J/K/mol],Normal melting temperature [2] [°C],Molar enthalpy of transition or fusion [3] [kcal/mol]
Nc1ccc(S(N)(=O)=O)cc1 [4-aminobenzenesulfonamide],199.76 ± 10,164.53 ± 0.39,5.33 ± 0.122
Cc1ccc(S(N)(=O)=O)cc1 [p-toluenesulfonamide],205.46 ± 14,137.27 ± 0.39,5.72 ± 0.174

# Second part, the compound after the results:
molar heat capacity at constant pressure [1] [J/K/mol],Normal melting temperature [2] [°C],Molar enthalpy of transition or fusion [3] [kcal/mol],SMILES
173.93 ± 21,153.46 ± 0.39,5.6 ± 0.129,Nc1ccccc1S(N)(=O)=O [2-aminobenzenesulfonamide]
172.91 ± 9.4,152.32 ± 0.39,5.67 ± 0.131,NS(=O)(=O)c1ccccc1 [benzenesulfonamide]
193.48 ± 21,–,6.75 ± 0.179,Cc1ccccc1S(N)(=O)=O [o-toluenesulfonamide]
